Data set [1] concerns the target T1, serum vitamin D binding protein (Homo sapiens, UniProt P02774).
T1 sequence (P02774 17-474): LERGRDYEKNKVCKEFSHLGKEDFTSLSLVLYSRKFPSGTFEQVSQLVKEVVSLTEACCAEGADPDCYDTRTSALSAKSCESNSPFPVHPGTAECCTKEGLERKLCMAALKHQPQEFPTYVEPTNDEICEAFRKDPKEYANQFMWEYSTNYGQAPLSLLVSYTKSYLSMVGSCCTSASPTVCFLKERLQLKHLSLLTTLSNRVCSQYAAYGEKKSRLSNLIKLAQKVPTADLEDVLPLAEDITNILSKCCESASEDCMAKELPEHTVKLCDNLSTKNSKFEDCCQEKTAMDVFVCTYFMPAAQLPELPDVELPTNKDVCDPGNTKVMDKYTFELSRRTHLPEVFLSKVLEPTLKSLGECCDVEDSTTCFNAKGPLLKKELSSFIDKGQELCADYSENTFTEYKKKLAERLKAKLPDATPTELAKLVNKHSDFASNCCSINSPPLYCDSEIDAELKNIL
As to conditions: binding to serum vitamin D binding protein, Langmuir isotherm, nonlinear least-squares fit; cited from earlier work.

In data set [2] the target is cellular retinoic acid-binding protein I (CRABPI) (Homo sapiens, UniProt P29762). As to conditions: read-out: apparent dissociation constant; probe binding to CRABPI; cited from earlier work.
Sequence of cellular retinoic acid-binding protein I (CRABPI) (P29762 whole entry, species assumed): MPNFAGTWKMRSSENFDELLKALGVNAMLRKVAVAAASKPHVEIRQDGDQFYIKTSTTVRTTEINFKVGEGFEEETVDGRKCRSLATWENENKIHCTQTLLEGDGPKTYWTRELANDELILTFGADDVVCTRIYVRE
Data set [3] deals with T2, keratinocyte lipid-binding protein (KLBP) (Mus musculus, UniProt Q05816).
T2 sequence (Q05816 1-135): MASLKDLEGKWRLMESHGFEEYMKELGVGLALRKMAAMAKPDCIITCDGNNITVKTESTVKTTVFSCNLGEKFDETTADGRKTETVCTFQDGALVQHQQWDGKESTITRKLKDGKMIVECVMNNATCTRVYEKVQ
As to conditions: read-out: apparent dissociation constant (Kd); probe binding to KLBP; cited from earlier work.

Data set [4] deals with T3, cellular retinol-binding protein (CRBP) (Homo sapiens, UniProt P09455).
T3 sequence (P09455 1-135): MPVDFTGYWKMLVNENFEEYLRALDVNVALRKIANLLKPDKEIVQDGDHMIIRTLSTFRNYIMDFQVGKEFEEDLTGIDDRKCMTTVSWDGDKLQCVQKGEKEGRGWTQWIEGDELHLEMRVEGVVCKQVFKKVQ
The note with it: read-out: apparent dissociation constant; probe binding to CRBP; cited from earlier work.

The target in another data set is T4, KLBP (Mus musculus, UniProt Q05816).
T4 sequence (Q05816 1-135): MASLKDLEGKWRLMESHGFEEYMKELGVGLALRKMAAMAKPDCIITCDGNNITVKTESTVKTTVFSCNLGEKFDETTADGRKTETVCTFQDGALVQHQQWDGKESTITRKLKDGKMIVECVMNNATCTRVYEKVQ
As to conditions: displacement of 1,8-ANS from KLBP; cited from earlier work.

A further data set has as its target T5, ALBP (Mus musculus, UniProt P04117).
T5 sequence (P04117 1-132): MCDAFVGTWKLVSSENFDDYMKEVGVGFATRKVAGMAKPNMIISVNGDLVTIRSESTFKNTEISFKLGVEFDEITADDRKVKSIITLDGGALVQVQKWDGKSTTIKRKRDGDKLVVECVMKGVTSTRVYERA
The note with it: displacement of 1,8-ANS from ALBP, cited from earlier work; for Ki: read-out: apparent inhibitor constant (Ki).

The target in a further data set is T6, CRBP (Homo sapiens, UniProt P09455).
T6 sequence (P09455 1-135): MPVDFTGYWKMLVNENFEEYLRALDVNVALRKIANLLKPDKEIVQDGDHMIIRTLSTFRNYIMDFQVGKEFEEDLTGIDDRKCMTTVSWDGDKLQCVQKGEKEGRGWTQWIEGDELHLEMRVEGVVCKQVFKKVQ
The note with it: displacement of 1,8-ANS from CRBP; cited from earlier work.

In another data set the target is T7, SAH hydrolase (Homo sapiens, UniProt P23526).
T7 construct: made in house; host or cells: E. coli JM109, vector pKK223-3
T7 sequence (P23526 whole entry): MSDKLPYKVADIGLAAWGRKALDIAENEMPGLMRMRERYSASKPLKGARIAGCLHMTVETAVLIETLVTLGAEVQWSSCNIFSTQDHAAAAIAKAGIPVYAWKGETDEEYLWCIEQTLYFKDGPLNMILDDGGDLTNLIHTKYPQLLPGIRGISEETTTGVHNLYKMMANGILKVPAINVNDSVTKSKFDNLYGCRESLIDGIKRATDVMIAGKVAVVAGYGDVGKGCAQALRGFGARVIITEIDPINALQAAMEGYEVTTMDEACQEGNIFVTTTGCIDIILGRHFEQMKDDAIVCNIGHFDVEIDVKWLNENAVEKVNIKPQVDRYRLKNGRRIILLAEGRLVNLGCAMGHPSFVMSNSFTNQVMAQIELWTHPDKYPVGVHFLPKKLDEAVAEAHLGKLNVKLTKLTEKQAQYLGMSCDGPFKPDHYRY
Briefly: SAH hydrolase activity, hydrolytic direction (kinetic constants for SAH). The format is biochemical. The note with it: substrate SAH. The method, then: The assay of SAH hydrolase activity in the hydrolytic direction was performed as described in Yuan et al., J. Biol. Chem., 271:28008-28016, 1996). The assay measures the hydrolysis of SAH into Ado and Hcy. The reaction product Hcy was derivatized by thiol specific reagent DTNB for colometric determination at 412 nm. The assay for SAH hydrolase in the synthetic direction was measured by the formation of SAH from substrate Ado and Hcy using HPLC (see, Yuan et al., J. Biol. Chem., 268:17030-17037 (1993). One unit of the enzyme activity was defined as the amount of enzyme that can hydrolyze or synthesize 1 μmole of SAH/min/mg.
Mutant SAH hydrolase (e.g., F302S) was specifically fluorescence labels on Cys421, an non-essential cysteine residue which is located on the surface of the protein that is not involved in substrate binding and catalysis. Cys421 residue is readily accessible by thiol reactive molecules, and can be modified without effect the binding affinity of the enzyme. Thiol specific reactive probes such as 7-diethylamino-3(4′-maleimidylphenyl)-4-methylcoumarin (CPM) can specifically label protein thiols. Mutant SAH hydrolase (F302S) (0.5 mg/ml) in 50 mM phosphate buffer, pH 7.2, was incubated with 2 mM of adenine to protect other thiols in the substrate binding site, followed by addition of CPM to final concentration of 50 μM. The reaction mixture was incubated at room temperature for 30 min. followed by gel filtration on a size exclusion column (Sephacryl S-300, […]×60 cm) to remove adenine and excess CPM. The CPM-labeled F302S mutant SAH hydrolase (2 mg/ml) was kept in 50 mM phosphate buffer containing 20% glycerol at −20° C. The comparison of Km (SAH) and Kcat (SAH) for wild type and mutant F302S is shown below in Table 10.

This is an account of results in patent publication US6610504B1, “Methods of determining SAM-dependent methyltransferase activity using a mutant SAH hydrolase” (General Atomics, priority 2000, dated 2003).

The term Km denotes the concentration of substrate that gives half-maximal velocity.

Turning to 25-hydroxyvitamin D, in data set [1], the Kd was 5.59 µM. On to `O=S(=O)(O)c1cccc2cccc(Nc3ccccc3)c12` [1,8-ANS, 1-anilinonapthalene 8-sulfonic acid], for which the Kd in data set [2] is 25 µM; in data set [3], 530 nM; in data set [4] it was 7.7 µM. With `CCCCCCCC/C=C\CCCCCCCC(=O)O` [Oleic acid], the Ki at KLBP was 420 nM; at ALBP, 134 nM. `CC1=C(/C=C/C(C)=C/C=C/C(C)=C/C=O)C(C)(C)CCC1` [all-trans-retinal]: the Ki on CRBP is 1.7 µM.

For the molecule `CC1=C(/C=C/C(C)=C/C=C/C(C)=C/C(=O)O)C(C)(C)CCC1` [all-trans-retinoic acid], the Ki on KLBP was 3600 nM; at CRBP, 5.3 µM; on ALBP, 870 nM. As for `CC1=C(/C=C/C(C)=C/C=C/C(C)=C/CO)C(C)(C)CCC1` [all-trans-retinol], the “bound by KLBP” value on KLBP is reported as “neither octanoic acid nor all-trans-retinol were bound”. The “displacement of the fluorophore from ALBP” value at ALBP is “did not displace”. With `CCCCC/C=C\C/C=C\C/C=C\C/C=C\CCCC(=O)O` [arachidonic acid], the Ki at KLBP was 400 nM.

Regarding `CCCCCCCC(=O)O` [octanoic acid], the “bound by KLBP” value at KLBP was “neither octanoic acid nor all-trans-retinol were bound”. Besides, the “displacement of the fluorophore from ALBP” value on ALBP is “did not displace”. Take vitamin D: the Kd in data set [1] is 91.7 µM.

B1: wild type: Human placental SAH hydrolase, wild type, expressed in E. coli JM109 (protein, UniProt P23526 2-432, looked up)
Adenosylhomocysteinase: SDKLPYKVADIGLAAWGRKALDIAENEMPGLMRMRERYSASKPLKGARIAGCLHMTVETAVLIETLVTLGAEVQWSSCNIFSTQDHAAAAIAKAGIPVYAWKGETDEEYLWCIEQTLYFKDGPLNMILDDGGDLTNLIHTKYPQLLPGIRGISEETTTGVHNLYKMMANGILKVPAINVNDSVTKSKFDNLYGCRESLIDGIKRATDVMIAGKVAVVAGYGDVGKGCAQALRGFGARVIITEIDPINALQAAMEGYEVTTMDEACQEGNIFVTTTGCIDIILGRHFEQMKDDAIVCNIGHFDVEIDVKWLNENAVEKVNIKPQVDRYRLKNGRRIILLAEGRLVNLGCAMGHPSFVMSNSFTNQVMAQIELWTHPDKYPVGVHFLPKKLDEAVAEAHLGKLNVKLTKLTEKQAQYLGMSCDGPFKPDHYRY
Take B1: in the data set with SAH hydrolase, the “Kcat (SAH)” value is recorded as 3.8 S^−1 and the Km came to 7.9 µM.

B2: F302S: Mutant human SAH hydrolase, Phe 302 to Ser (protein, UniProt P23526 2-432, looked up, variant F302S)
Adenosylhomocysteinase: SDKLPYKVADIGLAAWGRKALDIAENEMPGLMRMRERYSASKPLKGARIAGCLHMTVETAVLIETLVTLGAEVQWSSCNIFSTQDHAAAAIAKAGIPVYAWKGETDEEYLWCIEQTLYFKDGPLNMILDDGGDLTNLIHTKYPQLLPGIRGISEETTTGVHNLYKMMANGILKVPAINVNDSVTKSKFDNLYGCRESLIDGIKRATDVMIAGKVAVVAGYGDVGKGCAQALRGFGARVIITEIDPINALQAAMEGYEVTTMDEACQEGNIFVTTTGCIDIILGRHFEQMKDDAIVCNIGHSDVEIDVKWLNENAVEKVNIKPQVDRYRLKNGRRIILLAEGRLVNLGCAMGHPSFVMSNSFTNQVMAQIELWTHPDKYPVGVHFLPKKLDEAVAEAHLGKLNVKLTKLTEKQAQYLGMSCDGPFKPDHYRY
Consider B2, for which, in the data set with SAH hydrolase, the “Kcat (SAH)” value worked out at 0.1 S^−1 and the Km came out at 1 µM.
